Test results taken from US11672841B2, “Methods for treating heart disease in a subject with Friedreich's ataxia by an aromatic-cationic peptide” (Stealth BioTherapeutics Inc., priority 2013, dated 2023).
Non-standard residues stand in square brackets, D forms with d. Residues, ends and D or L forms follow the SMILES beside them. No end group written: not given here. Dmt = Cc1cc(O)cc(C)c1C[C@H](N)C(=O)O

Columns and labels:
[1] = tested on: several mammalian cell types; conditions: energy-independent manner (Zhao, et al., 2003); cited from earlier work
[2] = tested on: fibroblasts from Friedreich's ataxia (FRDA) patients; conditions: 1-10 μM peptide 24 hours, then 5 μm Fe/HQ for 5 hours
Protocol: Iron with hydroquinone (HQ) induces oxidative stress in cells because HQ forms a lipophilic chelate with iron and rapidly transfers the metal across the normally impermeable plasma membrane.
After 24 hours, the media is changed and the cells are treated with 5 μm Fe/HQ for 5 hours.

mu-opioid receptor = mu-opioid receptor (Homo sapiens, UniProt P35372); test: Mu-opioid receptor agonist activity; conditions: stated without a test
Chain of mu-opioid receptor (P35372 whole entry, species assumed): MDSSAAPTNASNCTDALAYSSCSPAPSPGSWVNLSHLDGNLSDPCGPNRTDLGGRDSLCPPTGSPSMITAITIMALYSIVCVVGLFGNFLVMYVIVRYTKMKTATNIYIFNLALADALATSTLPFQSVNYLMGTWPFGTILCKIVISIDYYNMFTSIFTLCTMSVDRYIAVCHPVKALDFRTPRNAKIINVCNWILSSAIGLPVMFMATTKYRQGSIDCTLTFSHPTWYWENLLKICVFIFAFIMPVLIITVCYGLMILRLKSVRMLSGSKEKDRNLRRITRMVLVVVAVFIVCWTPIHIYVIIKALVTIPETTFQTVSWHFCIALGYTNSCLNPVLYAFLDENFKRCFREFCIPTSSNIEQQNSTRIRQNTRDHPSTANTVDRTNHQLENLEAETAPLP

| Compound | mu-opioid receptor agonist activity (mu-opioid receptor) | other results |
| --- | --- | --- |
| 2′,6′-Dmt-D-Arg-Phe-Lys-NH2 | – | penetration of the plasma membrane [1]: readily penetrates the plasma membrane |
| Cc1cc(O)cc(C)c1C[C@H](NC(=O)[C@H](N)CCCNC(=N)N)C(=O)N[C@@H](CCCCN)C(=O)N[C@@H](Cc1ccccc1)C(N)=O [D-Arg-2′,6′-Dmt-Lys-Phe-NH2] (H-[dR][Dmt]KF-NH2) | – | survival and cytotoxicity by morphologic appearance [2]: reduced evidence of cytotoxicity |
| F[dR]FK-NH2 | does not have mu-opioid receptor agonist activity | – |
| Tyr-D-Arg-Phe-Lys-NH2 | has mu-opioid receptor agonist activity | – |
